Laboratory results taken from US8664391B2, “Amide compounds as boosters of antivirals” (Janssen R&D Ireland Ltd, priority 2008, dated 2014).
Read-outs that look alike come from different tables or passages of the source.

Experiments:
[1] = molecular target: T1, CYP2D6 (Homo sapiens, UniProt P10635); assay: CYP450 inhibition, fluorescent substrate assay, CYP2D6; assay type: biochemical; settings: substrate AMMC 3 μM, read-out: 2D6-AMMC % inh.
T1 construct: host or cells: E. coli
Protocol: (§1) Assay 4: CYP450 Inhibition […] This fluorescent molecule was measured using a fluorescent plate reader (Victor2 (Wallac) or Fluoroskan (Labsystems)). Compounds inhibiting the enzymatic reaction will result in a decrease of fluorescent signal. CYP P450 enzymes were prepared in house or commercially bought and stored at −80° C. [table] The assay was performed in black 96 well Costar plates. Test compounds were added to a CYP P450 enzyme solution in the presence of an NADPH generating system. After 5 min of preincubation at 37° C., the freshly prepared, phosphate buffered (pH 7.4) substrate solution was added. Known CYP P450 inhibitors were used as positive controls, negative controls were run without CYP P450 enzyme. For final reaction mixture concentrations, see Table 6. […] Then, the reaction was stopped by the addition of 200 μl acetonitrile, and the fluorescent signal was detected. [table] […] Inhibition of TMC114 Metabolisation

[2] = in vitro; assay type: in vitro ADME, human; settings: pH 7.4
Text: Assay 3: Metabolic Stability of Test Compounds (HLM15′)
Sub-cellular tissue preparations are made according to Gorrod et al. (Xenobiotica, 5, pp. 453-462 (1975)) by centrifugal separation after mechanical homogenization of tissue. Human liver tissue is rinsed in ice-cold 0.1 M Tris-HCl (pH 7.4) buffer to wash excess blood. Tissue is then blotted dry, weighed and chopped coarsely using surgical scissors. The tissue pieces are homogenized in 3 volumes of ice-cold 0.1 M phosphate buffer (pH 7.4) using either a Potter-S (Braun, Italy) equipped with a Teflon pestle or a Sorvall Omni-Mix homogenizer, for 7×10 sec. In both cases, the vessel is kept in/on ice during the homogenization process. Tissue homogenates are centrifuged at 9000×g for 20 min at 4° C. using a Sorvall centrifuge or Beckman Ultracentrifuge. The resulting supernatant can be stored at −80° C. and is designated ‘S9’. The S9 fraction is centrifuged at 100,000×g for 60 min at 4° C. using a Beckman ultracentrifuge. The resulting supernatant is carefully aspirated, aliquoted and designated ‘cytosol’. The pellet is re-suspended in 0.1 M phosphate buffer (pH 7.4) in a final volume of 1 ml per 0.5 g original tissue weight and designated ‘microsomes’. All sub-cellular fractions are aliquoted, immediately frozen in liquid nitrogen and stored at −80° C. until use.
Heat-inactivated (10 min at 95° C.) ‘S9’ or microsomes were used for blank experiments. Reaction mixtures were incubated at 37° C. for 5 min, after which the reaction was started by the addition of 0.8 mM β-NADP. The reaction was incubated for 0 or 15 min. Next, the reaction was stopped by addition of 2 volumes of DMSO (or acetonitrile). Samples were centrifuged (10 min, 900×g) and analyzed by LC-MS.

[3] = Cytotoxicity in mock-infected MT4 CMV-EGFP cells; assay type: cell-based; settings: human, pCC50 = -log10(CC50), read-out: Toxicity MT4 pCC50 (converted)
Text: (§2) Assay 1 &2: Antiviral Activity/Toxicity
Analogously, MT4 cells are engineered with GFP and the constitutional cytomegalovirus (CMV) promotor. This cell line is designated MT4 CMV-EGFP, and can be used for the in vitro evaluation of cytotoxicity of investigational compounds. In this cell line, GFP levels are comparably to those of infected MT4 LTR-EGFP cells. Cytotoxic investigational compounds reduce GFP levels of mock-infected MT4 CMV-EGFP cells.
Effective concentration values such as 50% effective concentration (EC50) can be determined and are usually expressed in μM. An EC50 value is defined as the concentration of test compound that reduces the fluorescence of HIV-infected cells by 50%. The 50% cytotoxic concentration (CC50 in μM) is defined as the concentration of test compound that reduces fluorescence of the mock-infected cells by 50%. The ratio of CC50 to EC50 is defined as the selectivity index (SI) and is an indication of the selectivity of the anti-HIV activity of the inhibitor. The ultimate monitoring of HIV-1 infection and cytotoxicity is done using a scanning microscope. Image analysis allows very sensitive detection of viral infection. Measurements are done before cell necrosis, which usually takes place about five days after infection, in particular measurements are performed three days after infection.
Table 2 lists pEC50 values against the wild-type HIV-1 IIIB strain as well as pCC50 values for a selected number of compounds of the invention. A pEC50 value corresponds to −log10(EC50). A pCC50 value corresponds to −log10(CC50).

[4] = molecular target: T2, CYP3A4 (Homo sapiens, UniProt P08684); assay: CYP450 inhibition, fluorescent substrate assay, CYP3A4; assay type: biochemical; settings: for inhibition at 10 min, 10 μM: substrate DBF 1 μM, read-out: 3A4-DBF % inh.
T2 construct: host or cells: E. coli
T2 sequence (P08684 whole entry): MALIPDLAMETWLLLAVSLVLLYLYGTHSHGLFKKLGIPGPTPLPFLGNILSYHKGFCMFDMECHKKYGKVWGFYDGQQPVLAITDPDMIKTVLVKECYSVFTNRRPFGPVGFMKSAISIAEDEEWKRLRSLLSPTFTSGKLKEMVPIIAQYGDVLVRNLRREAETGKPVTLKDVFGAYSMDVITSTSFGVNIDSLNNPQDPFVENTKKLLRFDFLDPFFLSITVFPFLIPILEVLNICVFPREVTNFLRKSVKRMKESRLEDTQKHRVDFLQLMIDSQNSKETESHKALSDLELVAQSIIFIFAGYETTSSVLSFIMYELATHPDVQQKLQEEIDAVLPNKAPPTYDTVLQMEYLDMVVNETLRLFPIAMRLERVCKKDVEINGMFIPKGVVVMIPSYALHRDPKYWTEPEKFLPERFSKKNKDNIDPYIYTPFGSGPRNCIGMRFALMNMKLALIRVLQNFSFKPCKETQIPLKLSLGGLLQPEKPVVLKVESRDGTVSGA
Protocol: as §1

[5] = molecular target: CYP2C9 (Homo sapiens, UniProt P11712); assay: CYP450 inhibition, fluorescent substrate assay, CYP2C9; assay type: biochemical
Sequence of CYP2C9 (P11712 whole entry): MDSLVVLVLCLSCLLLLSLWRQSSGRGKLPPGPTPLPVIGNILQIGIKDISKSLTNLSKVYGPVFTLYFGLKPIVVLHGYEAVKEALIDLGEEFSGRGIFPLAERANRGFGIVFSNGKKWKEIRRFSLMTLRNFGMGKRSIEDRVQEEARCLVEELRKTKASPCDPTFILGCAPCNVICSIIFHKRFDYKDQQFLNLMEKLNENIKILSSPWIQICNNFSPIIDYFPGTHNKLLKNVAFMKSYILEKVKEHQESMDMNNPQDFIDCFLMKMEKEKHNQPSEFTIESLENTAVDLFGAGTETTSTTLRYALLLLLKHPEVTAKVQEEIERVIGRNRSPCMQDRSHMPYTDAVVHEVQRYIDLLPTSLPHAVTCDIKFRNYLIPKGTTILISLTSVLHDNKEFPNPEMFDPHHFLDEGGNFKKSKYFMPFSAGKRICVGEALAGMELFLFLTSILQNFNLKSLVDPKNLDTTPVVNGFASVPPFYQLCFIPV
Protocol: as §1

[6] = molecular target: T3, CYP2C19 (Homo sapiens, UniProt P33261); assay: CYP450 inhibition, fluorescent substrate assay, CYP2C19; assay type: biochemical; settings: substrate CEC 25 μM, read-out: 2C19-CEC % inh.
T3 construct: host or cells: E. coli
T3 sequence (P33261 whole entry): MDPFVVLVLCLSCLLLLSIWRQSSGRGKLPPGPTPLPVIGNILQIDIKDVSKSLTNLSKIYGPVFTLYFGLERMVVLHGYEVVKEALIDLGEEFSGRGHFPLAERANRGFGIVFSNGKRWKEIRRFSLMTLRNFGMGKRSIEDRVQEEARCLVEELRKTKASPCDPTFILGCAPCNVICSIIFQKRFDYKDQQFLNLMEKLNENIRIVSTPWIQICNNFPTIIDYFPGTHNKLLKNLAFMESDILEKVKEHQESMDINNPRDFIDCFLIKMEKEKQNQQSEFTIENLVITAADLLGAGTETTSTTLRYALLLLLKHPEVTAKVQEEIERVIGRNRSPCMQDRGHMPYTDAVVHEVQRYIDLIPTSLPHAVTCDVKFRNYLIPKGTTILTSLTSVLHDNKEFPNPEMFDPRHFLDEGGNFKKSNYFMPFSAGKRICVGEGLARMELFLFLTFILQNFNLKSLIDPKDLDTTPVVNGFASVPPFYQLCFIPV
Protocol: as §1

[7] = molecular target: T4, CYP1A2 (Homo sapiens, UniProt P05177); assay: CYP450 inhibition, fluorescent substrate assay, CYP1A2; assay type: biochemical; settings: substrate CEC 5 μM, read-out: 1A2-CEC % inh.
T4 construct: host or cells: E. coli
T4 sequence (P05177 1-516): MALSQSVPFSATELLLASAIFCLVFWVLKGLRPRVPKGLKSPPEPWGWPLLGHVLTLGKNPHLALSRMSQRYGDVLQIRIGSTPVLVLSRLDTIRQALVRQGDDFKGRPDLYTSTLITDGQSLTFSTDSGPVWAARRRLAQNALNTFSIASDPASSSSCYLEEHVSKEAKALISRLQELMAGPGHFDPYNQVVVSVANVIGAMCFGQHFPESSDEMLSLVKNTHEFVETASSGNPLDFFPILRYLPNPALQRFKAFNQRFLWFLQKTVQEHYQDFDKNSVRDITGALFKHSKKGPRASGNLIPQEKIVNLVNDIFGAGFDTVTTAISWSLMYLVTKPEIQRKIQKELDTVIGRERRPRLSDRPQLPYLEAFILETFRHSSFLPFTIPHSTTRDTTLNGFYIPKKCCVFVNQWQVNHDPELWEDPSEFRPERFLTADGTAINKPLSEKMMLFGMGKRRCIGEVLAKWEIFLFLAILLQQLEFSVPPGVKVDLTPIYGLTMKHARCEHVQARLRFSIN
Protocol: as §1

[8] = tested on: wild-type HIV-1 IIIB strain; assay: Antiviral activity in MT4 LTR-EGFP cellular assay; assay type: cell-based; settings: read-out: Antiviral Activity IIIB pEC50 (converted)
Protocol: as §2
The compounds of the present invention were tested for antiviral activity in a cellular assay, which was performed according to the following procedure.
The human T-cell line MT4 is engineered with Green Fluorescent Protein (GFP) and an HIV-specific promoter, HIV-1 long terminal repeat (LTR). This cell line is designated MT4 LTR-EGFP, and can be used for the in vitro evaluation of anti-HIV activity of investigational compounds. In HIV-1 infected cells, the Tat protein is produced which upregulates the LTR promotor and finally leads to stimulation of the GFP reporter production, allowing measuring ongoing HIV-infection fluorometrically.
The ratio of CC50 to EC50 is defined as the selectivity index (SI) and is an indication of the selectivity of the anti-HIV activity of the inhibitor. The ultimate monitoring of HIV-1 infection and cytotoxicity is done using a scanning microscope. Image analysis allows very sensitive detection of viral infection. Measurements are done before cell necrosis, which usually takes place about five days after infection, in particular measurements are performed three days after infection.
A pEC50 value corresponds to −log10(EC50). A pCC50 value corresponds to −log10(CC50).

[9] = E. coli expressed CYP2D6, pH 7.4, probe AMMC (3 μM), 10 μM test compound
[10] = E. coli expressed CYP3A4, pH 7.4, probe BFC (150 μM), 10 μM test compound, substrate BFC 150 μM, read-out: 3A4-BFC % inh.
[11] = E. coli expressed CYP3A4, pH 7.4, probe BQ (60 μM), 10 μM test compound, substrate BQ 60 μM, read-out: 3A4-BQ % inh.
[12] = E. coli expressed CYP3A4, pH 7.4, probe DBF (1 μM), 10 μM test compound
[13] = E. coli expressed CYP2C19, pH 7.4, probe CEC (25 μM), 10 μM test compound
[14] = E. coli expressed CYP1A2, pH 7.4, probe CEC (5 μM), 10 μM test compound
[15] = human liver microsomes 1 mg/ml, 5 μM test compound, 15 min, 37° C., read-out: % recovery HLM15
[16] = pH 7.4, 10 μM test compound, substrate MFC 200 μM, 30 min, read-out: 2C9-MFC % inh.
[17] = Human immunodeficiency virus 1, IIIB, 72 h
[18] = Human immunodeficiency virus 1, 72 h, wild-type HIV-1 IIIB, MT4 LTR-EGFP cells, three days after infection, pEC50 = -log10(EC50)

T1 sequence (P10635 whole entry): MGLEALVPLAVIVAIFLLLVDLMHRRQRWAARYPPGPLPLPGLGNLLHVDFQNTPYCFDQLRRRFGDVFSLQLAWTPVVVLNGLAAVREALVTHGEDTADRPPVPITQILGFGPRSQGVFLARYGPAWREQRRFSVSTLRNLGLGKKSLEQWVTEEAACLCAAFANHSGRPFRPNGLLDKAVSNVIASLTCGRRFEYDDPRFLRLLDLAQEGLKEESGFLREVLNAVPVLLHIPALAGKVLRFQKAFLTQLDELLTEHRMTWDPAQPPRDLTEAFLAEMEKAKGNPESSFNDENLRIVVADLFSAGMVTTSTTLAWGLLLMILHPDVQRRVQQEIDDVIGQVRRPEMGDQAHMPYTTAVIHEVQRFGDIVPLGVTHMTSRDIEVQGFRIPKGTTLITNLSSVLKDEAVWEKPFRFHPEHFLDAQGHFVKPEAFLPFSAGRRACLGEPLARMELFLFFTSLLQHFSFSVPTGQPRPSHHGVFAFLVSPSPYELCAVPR

Row | SMILES | inhibition at 45 min, 10 μM [1, 9] [%] | recovery at 15 min, 5 μM ([2]; human) [%] | CC50 at 3 days [3] [µM] | inhibition at 30 min, 10 μM [4, 10] [%] | inhibition at 30 min, 10 μM [4, 11] [%] | inhibition at 10 min, 10 μM [4, 12] [%] | inhibition at 30 min, 10 μM ([5]; pH 7.4) [%] | inhibition at 30 min, 10 μM [6, 13] [%] | inhibition at 15 min, 10 μM [7, 14] [%] | inhibition at 45 min, 10 μM ([1]; pH 7.4, 10 μM test compound) [%] | recovery at 15 min, 5 μM [2, 15] [%] | inhibition at 30 min, 10 μM ([4]; pH 7.4, 10 μM test compound, substrate BFC 150 μM, read-out: 3A4-BFC % inh.) [%] | inhibition at 30 min, 10 μM ([4]; pH 7.4, 10 μM test compound, substrate BQ 60 μM, read-out: 3A4-BQ % inh.) [%] | inhibition at 10 min, 10 μM ([4]; pH 7.4, 10 μM test compound) [%] | inhibition at 30 min, 10 μM [5, 16] [%] | inhibition at 30 min, 10 μM ([6]; pH 7.4, 10 μM test compound) [%] | EC50 [8, 17] [µM] | inhibition at 15 min, 10 μM ([7]; pH 7.4, 10 μM test compound) [%] | EC50 [8, 18] [µM]
1 | CC(C)(O)CN(C[C@@H](O)[C@H](Cc1ccccc1)NC(=O)OCc1cncs1)C(=O)c1ccncc1 [Compound C26] | 30 | 92 | > 100 | 95 | 77 | 84 | 82 | 35 | 0 |  |  |  |  |  |  |  |  |  | 
2 | CC(C)CN(C[C@@H](O)[C@H](Cc1ccccc1)NC(=O)OCc1cncs1)C(=O)c1cccc(F)c1 [Compound C19] | 53 | 69 | > 100 |  |  |  | 93 | 77 | 43 |  |  |  |  |  |  |  |  |  | 
3 | CC(C)CN(C[C@@H](O)[C@H](Cc1ccccc1)NC(=O)OCc1cncs1)C(=O)c1ccco1 [Compound C21] |  |  | > 100 |  |  |  |  |  |  | 62 | 62 | 87 | 81 | 95 | 95 | 75 | > 100 | 43 | 
4 | CC(C)CN(C[C@@H](O)[C@H](Cc1ccccc1)NC(=O)OCc1cncs1)C(=O)c1ccc2occc2c1 [Compound C2] | 102 | 67 | 45.7 |  |  |  |  | 98 | 40 |  |  |  |  |  |  |  |  |  | 44.7
5 | CC(C)CN(C[C@@H](O)[C@H](Cc1ccccc1)NC(=O)OCc1cncs1)C(=O)CCc1cncs1 [Compound C24] | 96 | 56 | > 100 | 101 | 82 | 89 | 92 | 86 | 13 |  |  |  |  |  |  |  |  |  | 97.7
6 | CC(C)CN(C[C@@H](O)[C@H](Cc1ccccc1)NC(=O)OCc1cncs1)C(=O)c1ccc[nH]1 [Compound C14] | 67 | 24 | 89.1 | 84 | 80 | 91 | 98 | 87 | 56 |  |  |  |  |  |  |  |  |  | 79.4
7 | CC(C)CN(C[C@@H](O)[C@H](Cc1ccccc1)NC(=O)OCc1cncs1)C(=O)c1ccc2c(c1)OCO2 [Compound C1] |  |  | 57.5 |  |  |  |  |  |  | 73 | 56 |  |  |  | 97 | 94 | 47.9 | 36 | 
